# Target: T1, human GPR139 receptor (Homo sapiens, UniProt Q6DWJ6)
# T1 construct: expressed in transfected cells; host or cells: T-REx-CHO (Thermo Fisher Scientific), doxycycline-induced
# T1 sequence (Q6DWJ6 1-353): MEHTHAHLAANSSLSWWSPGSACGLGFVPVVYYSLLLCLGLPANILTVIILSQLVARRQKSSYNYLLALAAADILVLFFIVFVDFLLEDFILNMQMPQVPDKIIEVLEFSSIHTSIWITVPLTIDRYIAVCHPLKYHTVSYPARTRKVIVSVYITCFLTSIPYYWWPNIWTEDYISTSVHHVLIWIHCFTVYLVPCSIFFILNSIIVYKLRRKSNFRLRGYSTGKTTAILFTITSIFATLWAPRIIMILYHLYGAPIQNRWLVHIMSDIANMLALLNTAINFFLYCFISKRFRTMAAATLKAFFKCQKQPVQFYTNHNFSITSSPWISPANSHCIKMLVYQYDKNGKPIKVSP
# Assay: Measurement of GPR139 Activation Via Calcium Signaling (FLIPR, T-REx-CHO cells)
# Format: cell-based
# Settings: T-REx-CHO cells stably expressing human GPR139, 11-point dose response, 10 μM maximum concentration, read-out: GPR139 Potency (pEC50) (converted)
# Procedure: Measurement of GPR139 Activation Via Calcium Signaling
# This cell-based assay measures the ability of compounds to activate GPR139 in stably transfected T-REx™-CHO cells. T-REx™-CHO cells (Thermo Fisher Scientific®) are stably expressed with human GPR139 receptor, whose expression is controlled by a tetracycline-inducible element. The cells are cultured in medium containing F-12K nutrient mixture-Kaighn's modification, TripleLE™ Express (1×)-phenol red, Dulbecco's phosphate-buffered saline (1×), 10% tetracycline-free FBS, Blasticidin S HCl (10 μg/mL) and Hygromycin B (200 μg/mL). The cells are introduced into the wells of a 384-well black clear bottom plate (Costar®) at 10,000 cells/well. GPR139 receptor expression is induced with 2 μg/mL doxycycline (Sigma D9891). The plate is allowed to stand at room temperature for 10-30 minutes and then incubated at 37° C. and 5% CO2 for 17 hours prior to assay.
# Culture media is removed from cells and 45 μL of 1× calcium dye (2.5 mM) is added to each well and incubated at 37° C. and 5% CO2 for 40 minutes. The plate is removed from the incubator and allowed to stand at RT for 20 minutes without a plate cover prior to measurement of calcium signaling. The calcium dye is prepared by adding 10 mL of assay buffer (Hank's Balanced Salt Solution (1×), 1 mM HEPES at pH 7.4) to one vial of calcium dye (FLIPR® Calcium 5 Assay Kit; Molecular Devices) at room temperature, vortexing the mixture until homogenous, and transferring the dye to a 250 mL flask using 10 mL of assay, buffer to rinse the vial. The dye is subsequently transferred to a conical flask, which is filled to the 200 mL mark with assay buffer, and 1 mL of […] probenecid solution (142.68 mg/mL in 1M NaOH aq) is added.
# Example compounds suspended in DMSO are received from compound management in microtiter plates (0.25 μL/well) and are diluted in assay buffer (25 μL). Following incubation of the cell plate, the Example compounds are added to the cells (11-point dose response, 10 μM maximum concentration) using a FLIPR® Tetra system (Molecular Devices) and fluorescence is measured continuously for 1 minute. EC50 curves are generated with a four-parameter logistic equation using GraphPad Prism® 6, and activation of GPR139 for each example compound is reported as pEC50.
row,Compound,EC50 [nM]
1,"COc1ccc([C@H](C)NC(=O)Cn2nc(C)c3cnn(C(C)(C)C)c3c2=O)cc1 [Example 9, (S)-2-(1-(tert-butyl)-4-methyl-7-oxo-1,7-dihydro-6H-pyrazolo[3,4-d]pyridazin-6-yl)-N-(1-(4-methoxyphenyl)ethyl)acetamide]",95.5
2,"Cc1ccc([C@H](C)NC(=O)Cn2ncc3c(c(C)nn3C(C)C)c2=O)cc1 [Example 46, (S)-2-(1-isopropyl-3-methyl-4-oxo-1,4-dihydro-5H-pyrazolo[3,4-d]pyridazin-5-yl)-N-(1-(p-tolyl)ethyl)acetamide]",77.6
3,"Cc1nn(CC(=O)N[C@@H](C)c2ccc(OC(F)(F)F)cc2)c(=O)c2cnn(C(C)C)c12 [Example 76, (S)-2-(1-isopropyl-7-methyl-4-oxo-1,4-dihydro-5H-pyrazolo[3,4-d]pyridazin-5-yl)-N-(1-(4-(trifluoromethoxy)phenyl)ethyl)acetamide]",1020
4,"Cc1ccc([C@H](C)NC(=O)Cn2nc(C)c3c(cnn3C(C)C)c2=O)cc1 [Example 77, (S)-2-(1-isopropyl-7-methyl-4-oxo-1,4-dihydro-5H-pyrazolo[3,4-d]pyridazin-5-yl)-N-(1-(p-tolyl)ethyl)acetamide]",91.2
5,"Cc1nn(CC(=O)N[C@@H](C)c2ccc(C(F)(F)F)cc2)c(=O)c2cnn(C3CC3)c12 [Example 78, (S)-2-(1-cyclopropyl-7-methyl-4-oxo-1,4-dihydro-5H-pyrazolo[3,4-d]pyridazin-5-yl)-N-(1-(4-(trifluoromethyl)phenyl)ethyl)acetamide]",79.4
6,"Cc1nn(CC(=O)N[C@@H](C)c2ccc(OC(F)(F)F)cc2)c(=O)c2cnn(C3CC3)c12 [Example 79, (S)-2-(1-cyclopropyl-7-methyl-4-oxo-1,4-dihydro-5/1-pyrazolo[3,4-d]pyridazin-5-yl)-N-(1-(4-(trifluoromethoxy)phenyl)ethyl)acetamide]",257
7,"Cc1ccc([C@H](C)NC(=O)Cn2nc(C)c3c(cnn3C(C)C)c2=O)c(F)c1 [Example 83, (S)—N-(1-(2-fluoro-4-methylphenyl)ethyl)-2-(1-isopropyl-7-methyl-4-oxo-1,4-dihydro-5H-pyrazolo[3,4-d]pyridazin-5-yl)acetamide]",93.3
8,"Cn1nc(C2CC2)c2c(=O)n(CC(=O)N3CCCC3c3ccc(Cl)cc3)ncc21 (stereo not drawn) [Example 84, 5-(2-(2-(4-chlorophenyl)pyrrolidin-1-yl)-2-oxoethyl)-3-cyclopropyl-1-methyl-1,5-dihydro-4H-pyrazolo[3,4-d]pyridazin-4-one]",407
9,"CC(C)n1ncc2c(=O)n(CC(=O)N[C@@H](C)c3ccc(C(F)(F)F)cc3)ncc21 [Example 86, (S)-2-(1-isopropyl-4-oxo-1,4-dihydro-5H-pyrazolo[3,4-d]pyridazin-5-yl)-N-(1-(4-(trifluoromethyl)phenyl)ethyl)acetamide]",83.2

# More lines, now with the values ahead:
row,EC50 [nM],Compound
1,126,"CC(C)n1ncc2c(=O)n(CC(=O)N[C@@H](C)c3ccc(OC(F)(F)F)cc3)ncc21 [Example 87, (S)-2-(1-isopropyl-4-oxo-1,4-dihydro-5H-pyrazolo[3,4-d]pyridazin-5-yl)-N-(1-(4-(trifluoromethoxy)phenyl)ethyl)acetamide]"
2,58.9,"Cc1ccc([C@H](C)NC(=O)Cn2ncc3c(cnn3C3CC3)c2=O)c(F)c1 [Example 90, (S)-2-(1-cyclopropyl-4-oxo-1,4-dihydro-5H-pyrazolo[3,4-d]pyridazin-5-yl)-N-(1-(2-fluoro-4-methylphenyl)ethyl)acetamide]"
3,58.9,"Cc1ccc([C@H](C)NC(=O)Cn2ncc3c(cnn3C3CC3)c2=O)cc1 [Example 91, (S)-2-(1-cyclopropyl-4-oxo-1,4-dihydro-5H-pyrazolo[3,4-d]pyridazin-5-yl)-N-(1-(p-tolyl)ethyl)acetamide]"
4,117,"Cc1ccc([C@H](C)NC(=O)Cn2ncc3c(c(C4CC4)nn3C(C)C)c2=O)c(F)c1 [Example 95, (S)-2-(3-cyclopropyl-1-isopropyl-4-oxo-1,4-dihydro-5H-pyrazolo[3,4-d]pyridazin-5-yl)-N-(1-(2-fluoro-4-methylphenyl)ethyl)acetamide]"
5,501,"CC(C)n1nc(C2CC2)c2c(=O)n(CC(=O)N[C@@H](C)c3ccc(OC(F)(F)F)cc3)ncc21 [Example 96, (S)-2-(3-cyclopropyl-1-isopropyl-4-oxo-1,4-dihydro-5H-pyrazolo[3,4-d]pyridazin-5-yl)-N-(1-(4-(trifluoromethoxy)phenyl)ethyl)acetamide]"
6,49,"Cc1ccc([C@H](C)NC(=O)Cn2ncc3c(c(C4CC4)nn3C(C)C)c2=O)cc1 [Example 97, (S)-2-(3-cyclopropyl-1-isopropyl-4-oxo-1,4-dihydro-5H-pyrazolo[3,4-d]pyridazin-5-yl)-N-(1-(p-tolyl)ethyl)acetamide]"
7,275,"CC(C)n1nc(C2CC2)c2c(=O)n(CC(=O)N[C@@H](C)c3ccc(C(F)(F)F)cc3)ncc21 [Example 98, (S)-2-(3-cyclopropyl-1-isopropyl-4-oxo-1,4-dihydro-5H-pyrazolo[3,4-d]pyridazin-5-yl)-N-(1-(4-(trifluoromethyl)phenyl)ethyl)acetamide]"
8,363,"Cc1nn(C(C)C)c2c(C)nn(CC(=O)N[C@@H](C)c3ccc(OC(F)(F)F)cc3)c(=O)c12 [Example 100, (S)-2-(1-isopropyl-3,7-dimethyl-4-oxo-1,4-dihydro-5H-pyrazolo[3,4-d]pyridazin-5-yl)-N-(1-(4-(trifluoromethoxy)phenyl)ethyl)acetamide]"
9,282,"Cc1nn(C2CC2)c2cnn(CC(=O)N[C@@H](C)c3ccc(OC(F)(F)F)cc3)c(=O)c12 [Example 109, (S)-2-(1-cyclopropyl-3-methyl-4-oxo-1,4-dihydro-5H-pyrazolo[3,4-d]pyridazin-5-yl)-N-(1-(4-(trifluoromethoxy)phenyl)ethyl)acetamide]"
